# Test results as given in patent publication US20260345517A1, “DOSAGE REGIMENS FOR TREATING STARGARDT DISEASE” (Alkeus Pharmaceuticals, Inc., priority 2024, published 2026).
# Experiments:
# [1] = tested on: asymptomatic Stargardt disease patients; assay: TEASE-3: retinal sensitivity by fundus-tracking microperimetry; type: in vivo, human; details: 14 mg daily
# Method: FIG. 4 is a graph showing mean retinal sensitivity (dB) over time in three asymptomatic Stargardt disease patients taking gildeuretinol acetate 14 mg daily. Lines show mean retinal sensitivity of both eyes. Lines are piecewise linear regressions with a knot time of 12 months. Each symbol represents a retinal sensitivity measurement for each eye. Patient 1 retinal sensitivity was measured with a Nidek MP-1 (Nidek, Gamagori, Japan). Patients 2 and 3 retinal sensitivity was measured with the CenterVue Macular Integrity Assessment or MAIA (CenterVue, Padova, Italy).
# The tolerability and effects of gildeuretinol acetate in Stargardt Disease (Clinical trial group 3 also known as TEASE-3) study was an open-label, multicenter, case control study designed to evaluate the efficacy and safety of gildeuretinol acetate on the progression of Stargardt disease in asymptomatic individuals. The trial was conducted at multiple sites in the United States. […]
# Disease progression was monitored by best-corrected visual acuity (BCVA) reported in number of Early Treatment Diabetic Retinopathy Study (ETDRS) letters, fundus autofluorescence (FAF) imaging, loss of photoreceptors (as measured by the ellipsoid zone band loss) by optical coherence tomography (OCT) according to literature (1-3) and retinal sensitivity by microperimetry. […]
# [2] = Open-label multiple dose pharmacokinetic study in healthy volunteers (percentage of deuterated vitamin A in plasma, LC/MS); type: in vivo, human; details: for % D3 Vitamin A: average over 24 hours, from AUC
# Method: Study Design: This was an open-label, non-randomized, multiple dose study in healthy volunteers aged 21 to 70 years of age (inclusion criteria). Subjects who met all entrance criteria at screening were invited to receive the study medication. There were six treatment arms: 2 mg/day, 3.5 mg/day, 5 mg/day, 7 mg/day, 10 mg/day and 14 mg/day gildeuretinol acetate. For the four lower dose groups, the dose regimen was one capsule per day, orally, to be taken at home, preferably in the evening unless a different time was preferred by the subject. For the two highest doses, the dose regimen was two capsules per day, one in the morning and one in the evening, although subjects with a preference to take both capsules at once were offered to do so. After taking the 1st dose at the study site, subjects were invited to return two and four weeks after starting the treatment.
# The clinical staff made periodic calls to monitor adverse events and ensure subject compliance. In addition, a text message was sent daily to remind subjects to take their medication. Subjects were instructed to avoid foods that contain large amounts of vitamin A (such as liver-based products), including supplements containing vitamin A, and to report their vitamin A intake by answering a daily text message diary. Fruits and vegetables were permitted without restriction.
# Deuterated retinol (gildeuretinol) (“D3”) and non-deuterated retinol (“Do”) and other vitamin A metabolites were measured to calculate the percentage of deuterated vitamin A in plasma. For all treatment groups, plasma samples were collected at baseline, 14±1 days (“2 weeks”) and 28±1 days (“4 weeks”) after initiation of treatment. Blood samples were usually collected following at least 10 hours of fasting (including last gildeuretinol acetate intake), preferably in the morning. For the 7 mg/day and the 14 mg/day groups only, after the first and last dose, blood samples were collected every 4 hours for 24 hours. A liquid chromatography/mass spectrometry assay was used to measure the metabolite levels.
# Table 2 provides % D3 Retinol (gildeuretinol, i.e. the percentage of deuterated retinol (gildeuretinol) over total retinol (as deuterated+non-deuterated) in plasma measured 12-24 hours following gildeuretinol acetate intake.
# Pharmacokinetic Results (integrated levels over 24 hours post dosing): total vitamin A in plasma, both deuterated (gildeuretinol) and non-deuterated (retinol), was measured every 4 hours following administration of 7 mg or 14 mg at the first dose, and following administration of the 28th dose (4 weeks of daily treatment). The area under the curve (AUC) was calculated and the % deuterated % D3 of total vitamin A (as retinol and gildeuretinol) was computed as an average over 24 hours.
smiles,measurement,setting,value
"CC(=O)OC/C=C(C)/C=C/C=C(C)/C=C/C1=C(C)CCCC1(C)C [gildeuretinol acetate, C20-D3-retinol acetate]",rate of change of mean retinal sensitivity,[1]; first year of treatment,−3.1±1.5 dB/year
same,rate of change of mean retinal sensitivity (improvement),[1]; years following the first year,+0.93±0.7 dB/year
same,% D3 Vitamin A,"[2]; 7 mg/day, 1st dose",38%
same,% D3 Vitamin A,"[2]; 7 mg/day, 28th dose",75%
same,average percentage of deuterated plasma vitamin A of total vitamin A (retinol + gildeuretinol),"[2]; 14 mg once daily, after 4 weeks",85%
same,% D3 Vitamin A,"[2]; 14 mg/day, 1st dose",52%
same,% D3 Vitamin A,"[2]; 14 mg/day, 28th dose",85%
